The species named for data set [1] is Canis familiaris. As to the kind of experiment: The differential (dp/dt) maximal rise in blood pressure with respect to time was evaluated. The format is functional, Canis lupus familiaris.
For data set [2], the system named is Canis familiaris. The experiment in a line: Tested for effective dose required to produce cardiotonic activity after intravenous administration in anesthetized dog model. The format is functional. The conditions noted are these: Canis lupus familiaris.
The subject of data set [3] is Canis familiaris. As to the kind of experiment: Maximum increase in cardiac force at 75 ug/Kg was observed in an anesthetized dog model(iv). In kind it is functional, Canis lupus familiaris.
A short description of data set [4]: Solubility in 1 M HCl. The format is physicochemical. The following applies: read-out: S.
Data set [5] relates to Canis familiaris. The experiment in a line: The mean arterial blood pressure drop after administration was determined. The format is functional, Canis lupus familiaris.
The test system of data set [6] is Canis familiaris. As to the kind of experiment: The high peak activity was evaluated at a dose of 35 ug/kg intravenously in dog. The format is functional, Canis lupus familiaris.
Data set [7] is described as follows: Solubility in 1 M HCl; compound is insoluble. The format is physicochemical. The conditions noted are these: buffer.

In brackets after ≈: the same amount, converted by molar mass.

By ED50 is commonly meant the midpoint of the dose-response relation.

Take `CC1CC(=O)NN=C1c1ccc2c(c1)Oc1cn[nH]c1N2` (centres undefined): the Change in the data set listed under Canis familiaris [1] stood at 119%. The compound further yielded an ED50 in the data set on Canis familiaris [2] of 0.015 mg/kg. Also, the Increase with Canis familiaris [3] came to 256%. Further, in data set [4], the solubility turned out to be 300 µg/mL (≈ 1060 µM). For the same compound, the “Decrease in blood pressure” value in the data set with Canis familiaris [5] is listed as 21%.

As for `CC1CC(=O)NN=C1c1ccc2c(c1)OCC(=O)N2` (centres undefined) [BEMORADAN], the Activity in the data set with Canis familiaris [6] is given as 200. Also, the 50% effect level in the data set with Canis familiaris [2] (ED50) was put at a dose of 0.0054 mg/kg. Moreover, in data set [7], the S result was “Insoluble”. In the data set with Canis familiaris [3], this compound returned an Increase of 127%.

Source of the values: ChEMBL document CHEMBL1151024, “Synthesis and cardiotonic activity of 2,9-dihydro-6-(5-methyl-3-oxo-2,3,4,5-tetrahydropyridazin-6-yl)pyrazolo[4,3-b][1,4]benzoxazine” (Bioorg Med Chem Lett, 1993).
